Data published in ChEMBL document CHEMBL4665796 (2020).
Activity calls are given as the source filed them. The calls are words filed in the database; no cut-off is given here.

How the values were obtained:
[1] = test system: Candida; experiment: Antimicrobial activity against Candida sp. at 1.5 ug after 18 hrs by paper disk-agar diffusion assay; format: functional, organism-based; details: dose 1.5 µg
[2] = test system: Pseudomonas putida; experiment: Antimicrobial activity against Pseudomonas putida at 1.5 ug after 18 hrs by paper disk-agar diffusion assay; format: functional, organism-based; details: dose 1.5 µg
[3] = molecular target: Sodium channel protein type 5 subunit alpha (Homo sapiens, UniProt Q14524); experiment: Inhibition of NaV1.5 (unknown origin) at 5 uM
Sodium channel protein type 5 subunit alpha, sequence (Q14524 whole entry, the tested form may be a part): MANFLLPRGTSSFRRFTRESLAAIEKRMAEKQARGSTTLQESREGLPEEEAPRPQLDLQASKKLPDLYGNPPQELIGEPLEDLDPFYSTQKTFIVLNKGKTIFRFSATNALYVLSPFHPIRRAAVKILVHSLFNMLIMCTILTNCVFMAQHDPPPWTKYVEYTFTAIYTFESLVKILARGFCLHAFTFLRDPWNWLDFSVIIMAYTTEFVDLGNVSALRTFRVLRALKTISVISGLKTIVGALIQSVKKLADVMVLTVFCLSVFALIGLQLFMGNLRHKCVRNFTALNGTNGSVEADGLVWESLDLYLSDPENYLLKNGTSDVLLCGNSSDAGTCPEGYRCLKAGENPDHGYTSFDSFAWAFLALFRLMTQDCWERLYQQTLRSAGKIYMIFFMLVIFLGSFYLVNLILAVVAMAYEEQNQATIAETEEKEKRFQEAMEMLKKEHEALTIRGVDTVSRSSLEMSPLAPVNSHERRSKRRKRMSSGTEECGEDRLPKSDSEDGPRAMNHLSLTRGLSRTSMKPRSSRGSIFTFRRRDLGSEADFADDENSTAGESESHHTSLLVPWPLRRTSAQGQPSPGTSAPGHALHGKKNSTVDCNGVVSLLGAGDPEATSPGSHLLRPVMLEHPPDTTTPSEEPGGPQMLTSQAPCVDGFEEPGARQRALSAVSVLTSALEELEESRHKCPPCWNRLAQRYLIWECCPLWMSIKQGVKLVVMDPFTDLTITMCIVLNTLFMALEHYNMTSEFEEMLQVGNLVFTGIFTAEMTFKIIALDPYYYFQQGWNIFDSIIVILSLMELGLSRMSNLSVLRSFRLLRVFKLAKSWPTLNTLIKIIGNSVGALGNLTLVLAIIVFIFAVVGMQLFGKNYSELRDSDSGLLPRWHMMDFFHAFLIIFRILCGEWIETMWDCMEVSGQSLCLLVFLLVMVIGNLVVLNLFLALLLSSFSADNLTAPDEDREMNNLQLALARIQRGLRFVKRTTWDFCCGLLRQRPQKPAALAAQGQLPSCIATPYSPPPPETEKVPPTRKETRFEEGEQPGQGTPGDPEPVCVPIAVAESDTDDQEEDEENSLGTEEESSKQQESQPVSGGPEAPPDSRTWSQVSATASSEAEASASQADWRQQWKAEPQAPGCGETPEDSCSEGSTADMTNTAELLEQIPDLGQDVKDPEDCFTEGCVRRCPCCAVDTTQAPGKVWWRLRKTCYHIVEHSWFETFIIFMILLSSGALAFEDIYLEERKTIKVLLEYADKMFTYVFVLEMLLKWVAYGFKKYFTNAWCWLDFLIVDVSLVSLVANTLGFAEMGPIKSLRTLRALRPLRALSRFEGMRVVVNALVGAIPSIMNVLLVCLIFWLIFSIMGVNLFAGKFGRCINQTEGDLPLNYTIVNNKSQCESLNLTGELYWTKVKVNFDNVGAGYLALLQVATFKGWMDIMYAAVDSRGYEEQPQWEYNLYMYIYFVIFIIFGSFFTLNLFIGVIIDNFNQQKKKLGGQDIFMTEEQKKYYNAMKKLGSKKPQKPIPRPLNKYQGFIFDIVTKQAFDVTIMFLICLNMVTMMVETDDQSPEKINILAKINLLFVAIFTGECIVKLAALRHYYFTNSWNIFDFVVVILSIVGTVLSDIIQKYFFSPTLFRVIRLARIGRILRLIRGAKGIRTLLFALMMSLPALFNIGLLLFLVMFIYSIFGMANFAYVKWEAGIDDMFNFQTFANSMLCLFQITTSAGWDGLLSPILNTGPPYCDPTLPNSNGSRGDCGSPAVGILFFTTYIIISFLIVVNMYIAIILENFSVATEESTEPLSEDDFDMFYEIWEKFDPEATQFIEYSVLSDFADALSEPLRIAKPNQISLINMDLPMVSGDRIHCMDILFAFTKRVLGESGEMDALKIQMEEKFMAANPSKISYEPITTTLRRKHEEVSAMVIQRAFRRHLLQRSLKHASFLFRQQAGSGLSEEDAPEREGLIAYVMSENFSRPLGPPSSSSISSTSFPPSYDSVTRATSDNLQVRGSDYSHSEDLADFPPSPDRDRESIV

[4] = test system: Bacillus subtilis; experiment: Antimicrobial activity against Bacillus subtilis at 1.5 ug after 18 hrs by paper disk-agar diffusion assay; format: functional, organism-based; details: dose 1.5 µg

Structure (SMILES) | Activity [1] | Activity [2] | inhibition (INH) [3] | Activity [4]
C[C@]12NC(=N)NC=C1C[C@]1(C)O[C@@]2(O)CC1=O | inactive | inactive | Not Active | inactive
C[C@@]12NC(=N)N[C@H]3O[C@H]4C[C@]1(O)O[C@@]4(C)C[C@H]32 |  |  | Not Active | 
C[C@]12NC(=N)NC=C1C[C@]1(C)O[C@@]2(O)C[C@@H]1O | inactive | inactive | Not Active | inactive
C[C@]12NC(=N)NC[C@H]1C[C@]1(C)O[C@@]2(O)CC1=O |  |  | Not Active | 
C[C@]1(O)C[C@@H]2CNC(=N)N[C@]2(C)C(=O)C[C@@H]1O |  |  | Not Active | 
C[C@]12NC(=N)NC[C@H]1C[C@]1(C)O[C@@]2(O)C[C@@H]1O |  |  | Not Active | 
